Source: paper PMC9226124, “Macrocycle-stabilization of its interaction with 14-3-3 increases plasma membrane localization and activity of CFTR” (Nature Communications, 2022)
pEC50: −log10 of the molar value. Where “and” joins values, the source holds several entries; their conditions need not be identical. Equal values may be shown once.

What was measured:
[1] = target: T1, 14-3-3β/CFTRpS753pS768 complex (Homo sapiens, UniProt P13569+P31946); experiment: Dose-response fluorescence polarization (FP) assay, compound titration; assay type: binding; settings: for FP signal: With 14-3-3
T1 construct: His6 (cleaved yes); made in house; peptide synthetic
Method in brief: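 Compounds were titrated in two-fold dilutions against 10 μM 14-3-3β and FITC-CFTR pS753pS768 peptide (100 nM or 10 nM). Buffer: 10 mM HEPES pH 7.4, 150 mM NaCl, 0.1% Tween20, 1 mg/mL BSA. Polarization was read at ex 485/em 535 nm, and EC50 was derived from a four-parameter variable-slope fit.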

[2] = target: T1, 14-3-3β/CFTRpS753pS768 complex; experiment: FP assay, 14-3-3β titration at constant compound concentration (apparent KD); assay type: binding

T1 sequence (P31946 whole entry): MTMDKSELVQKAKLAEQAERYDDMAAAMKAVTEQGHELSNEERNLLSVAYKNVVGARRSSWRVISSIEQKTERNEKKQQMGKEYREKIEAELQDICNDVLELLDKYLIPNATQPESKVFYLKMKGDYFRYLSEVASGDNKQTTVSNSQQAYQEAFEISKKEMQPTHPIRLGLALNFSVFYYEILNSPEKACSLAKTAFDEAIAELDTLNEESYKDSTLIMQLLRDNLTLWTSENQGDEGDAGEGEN
T1 sequence (P13569 747-774 limits assumed): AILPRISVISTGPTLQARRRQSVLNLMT

N=C(N)NCCCC1NC(=O)C(CCCCN)NCc2ccccc2Sc2ccccc2CNC(=O)C(Cc2ccc(O)cc2)NC1=O (stereo not drawn) [CY001951]
pEC50 ([1]; 14-3-3β 10 μM, labeled CFTRpS753pS768 100 nM, read-out: EC50): 3.57 | FP signal ([1]; compound 476.8 pM): 3 | FP signal ([1]; compound 953.7 pM): 3 | FP signal ([1]; compound 1.90735e-9 M): 4 | FP signal ([1]; compound 3.8147e-9 M): 4 | FP signal ([1]; compound 7.6294e-9 M): 3 | FP signal ([1]; compound 1.52588e-8 M): 5 | FP signal ([1]; compound 3.05176e-8 M): 4 | FP signal ([1]; compound 6.10352e-8 M): 5 | FP signal ([1]; compound 1.2207e-7 M): 4 | FP signal ([1]; compound 2.44141e-7 M): 4 | FP signal ([1]; compound 4.88281e-7 M): 5 | FP signal ([1]; compound 9.76563e-7 M): 6 | FP signal ([1]; compound 1.95313e-6 M): 6 | FP signal ([1]; compound 3.90625e-6 M): 6 | FP signal ([1]; compound 7.8125e-6 M): 7 | FP signal ([1]; compound 1.5625e-5 M): 9 | FP signal ([1]; compound 3.125e-5 M): 16 | FP signal ([1]; compound 6.25e-5 M): 33 | FP signal ([1]; compound 0.000125 M): 73 | FP signal ([1]; compound 0.00025 M): 143 | FP signal ([1]; compound 0.0005 M): 201 | FP signal ([1]; compound 0.001 M): 252 | Fluorescence polarization signal, 14-3-3β titration ([2]; CY compound (100 μM), 14-3-3β concentration 119.2 pM): -2.333 | Fluorescence polarization signal, 14-3-3β titration ([2]; CY compound (100 μM), 14-3-3β concentration 2.44141e-7 M): 10.6667 and 8.667 | Fluorescence polarization signal, 14-3-3β titration ([2]; CY compound (100 μM), 14-3-3β concentration 4.88281e-7 M): 15.6667 and 13.6667 | Fluorescence polarization signal, 14-3-3β titration ([2]; CY compound (100 μM), 14-3-3β concentration 9.76563e-7 M): 27.6667 and 26.6667 and 29.6667 | Fluorescence polarization signal, 14-3-3β titration ([2]; CY compound (100 μM), 14-3-3β concentration 1.95313e-6 M): 40.6667 and 36.6667 | Fluorescence polarization signal, 14-3-3β titration ([2]; CY compound (100 μM), 14-3-3β concentration 3.90625e-6 M): 51.6667 and 49.6667 and 46.6667 | Fluorescence polarization signal, 14-3-3β titration ([2]; CY compound (100 μM), 14-3-3β concentration 7.8125e-6 M): 63.6667 and 58.6667 and 54.6667 | Fluorescence polarization signal, 14-3-3β titration ([2]; CY compound (100 μM), 14-3-3β concentration 1.5625e-5 M): 72.6667 and 68.6667 and 66.6667 | Fluorescence polarization signal, 14-3-3β titration ([2]; CY compound (100 μM), 14-3-3β concentration 3.125e-5 M): 82.6667 and 80.6667 | Fluorescence polarization signal, 14-3-3β titration ([2]; CY compound (100 μM), 14-3-3β concentration 6.25e-5 M): 93.6667 and 92.6667 and 96.6667 | Fluorescence polarization signal, 14-3-3β titration ([2]; CY compound (100 μM), 14-3-3β concentration 0.000125 M): 115.667 and 110.667 and 114.667 | Fluorescence polarization signal, 14-3-3β titration ([2]; CY compound (100 μM), 14-3-3β concentration 0.00025 M): 126.667 and 124.667 and 128.667 | Fluorescence polarization signal, 14-3-3β titration ([2]; CY compound (100 μM), 14-3-3β concentration 0.0005 M): 148.667 and 147.667 | Fluorescence polarization signal, 14-3-3β titration ([2]; FC-A + CY compound, 14-3-3β concentration 1.52588e-8 M): 4.333 and 2.333 and 3.333 | Fluorescence polarization signal, 14-3-3β titration ([2]; FC-A + CY compound, 14-3-3β concentration 6.10352e-8 M): 10.3333 and 8.333 | Fluorescence polarization signal, 14-3-3β titration ([2]; FC-A + CY compound, 14-3-3β concentration 1.2207e-7 M): 16.3333 and 18.3333 and 15.3333 | Fluorescence polarization signal, 14-3-3β titration ([2]; FC-A + CY compound, 14-3-3β concentration 2.44141e-7 M): 30.3333 and 31.3333 and 29.3333 | Fluorescence polarization signal, 14-3-3β titration ([2]; FC-A + CY compound, 14-3-3β concentration 4.88281e-7 M): 47.3333 and 45.3333 and 44.3333 | Fluorescence polarization signal, 14-3-3β titration ([2]; FC-A + CY compound, 14-3-3β concentration 9.76563e-7 M): 71.3333 and 70.3333 and 66.3333 | Fluorescence polarization signal, 14-3-3β titration ([2]; FC-A + CY compound, 14-3-3β concentration 1.95313e-6 M): 93.3333 and 85.3333 | Fluorescence polarization signal, 14-3-3β titration ([2]; FC-A + CY compound, 14-3-3β concentration 3.90625e-6 M): 110.333 and 108.333 and 107.333 | Fluorescence polarization signal, 14-3-3β titration ([2]; FC-A + CY compound, 14-3-3β concentration 7.8125e-6 M): 119.333 and 118.333 and 122.333 | Fluorescence polarization signal, 14-3-3β titration ([2]; FC-A + CY compound, 14-3-3β concentration 1.5625e-5 M): 129.333 and 131.333 and 128.333 | Fluorescence polarization signal, 14-3-3β titration ([2]; FC-A + CY compound, 14-3-3β concentration 3.125e-5 M): 139.333 and 142.333 and 140.333 | Fluorescence polarization signal, 14-3-3β titration ([2]; FC-A + CY compound, 14-3-3β concentration 6.25e-5 M): 148.333 and 150.333 | Fluorescence polarization signal, 14-3-3β titration ([2]; FC-A + CY compound, 14-3-3β concentration 0.000125 M): 156.333 and 152.333 | Fluorescence polarization signal, 14-3-3β titration ([2]; FC-A + CY compound, 14-3-3β concentration 0.00025 M): 161.333 and 163.333 and 160.333 | Fluorescence polarization signal, 14-3-3β titration ([2]; FC-A + CY compound, 14-3-3β concentration 0.0005 M): 171.333 and 173.333
